# Reference: ChEMBL document CHEMBL1201862, “PubChem BioAssay data set” (2004)
#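 Dose response: 5 concentrations. Exposure: 48 h. Format: 96-well plates. Endpoint: linear interpolation; highest concentration if not reached. GI50 = concentration required for 50% inhibition of growth.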 The source made the active and inactive calls. Rule as the data show it: active = GI50 up to about 1.1 µM and inactive = higher.
# Experiments:
# Test in all cases: inhibition of tumour cell growth, NCI panel, 48 h
# LOX IMVI = test system: LOX IMVI
# SF-268 = test system: SF-268
# IGROV-1 = test system: IGROV-1
# OVCAR-8 = test system: OVCAR-8
# K562 = test system: K562
# HCT-15 = test system: HCT-15
# SW-620 = test system: SW-620
# DLD-1 = test system: DLD-1
# SR = test system: SR
# SF-539 = test system: SF-539
# SK-OV-3 = test system: SK-OV-3
# SNB-19 = test system: SNB-19
# KM-20L2 = test system: KM-20L2
# DMS-114 = test system: DMS-114
# NCI-H460 = test system: NCI-H460
# CAKI-1 = test system: CAKI-1
# OVCAR-4 = test system: OVCAR-4
SMILES,GI50 (LOX IMVI),GI50 (SF-268),GI50 (IGROV-1),GI50 (OVCAR-8),GI50 (K562),GI50 (HCT-15) [µM],GI50 (SW-620),GI50 (DLD-1),GI50 (SR),GI50 (SF-539),GI50 (SK-OV-3),GI50 (SNB-19),GI50 (KM-20L2),GI50 (DMS-114),GI50 (NCI-H460),GI50 (CAKI-1),GI50 (OVCAR-4)
COc1ccc2c(CN3CCCCC3CO)cc3cc(OC)c(OC)cc3c2c1 (stereo not given),3.32 µM (inactive),6.28 µM (inactive),13.2 µM (inactive),4.42 µM (inactive),2.59 µM (inactive),4.38,3.88 µM (inactive),6.18 µM (inactive),3.72 µM (inactive),4.02 µM (inactive),14.6 µM (inactive),4.04 µM (inactive),3.64 µM (inactive),3.49 µM (inactive),–,–,–
COc1cccc2c1OC1Sc3ccccc3-c3nn(-c4ccccc4)c-2c31 (stereo not given),> 100 µM (inactive),> 100 µM (inactive),> 100 µM (inactive),> 100 µM (inactive),> 100 µM (inactive),–,> 100 µM (inactive),> 100 µM (inactive),–,> 100 µM (inactive),> 100 µM (inactive),–,> 100 µM (inactive),> 100 µM (inactive),> 100 µM (inactive),–,–
CN(C)CCNC(=O)c1cccc2[nH]c(-c3ccccc3)nc12,15.6 µM (inactive),18.5 µM (inactive),21.7 µM (inactive),> 10 µM (inactive),26.4 µM (inactive),15.8,13.1 µM (inactive),16.3 µM (inactive),–,12.2 µM (inactive),17.3 µM (inactive),32.5 µM (inactive),–,17.3 µM (inactive),15.4 µM (inactive),24.7 µM (inactive),28.4 µM (inactive)
CC1=C(c2cc(C(=O)Nc3nccs3)nc(NC#N)n2)Sc2ccccc2N1,–,> 100 µM (inactive),> 100 µM (inactive),> 100 µM (inactive),> 100 µM (inactive),65.3,> 100 µM (inactive),> 100 µM (inactive),> 100 µM (inactive),> 100 µM (inactive),–,> 100 µM (inactive),> 100 µM (inactive),–,> 100 µM (inactive),> 100 µM (inactive),> 100 µM (inactive)
O=C(CSc1nnc(Cc2ccccc2)o1)Nc1cccc(Cl)c1,64.4 µM (inactive),> 100 µM (inactive),> 100 µM (inactive),> 100 µM (inactive),46.6 µM (inactive),98.4,> 100 µM (inactive),> 100 µM (inactive),–,> 100 µM (inactive),> 100 µM (inactive),> 100 µM (inactive),> 100 µM (inactive),–,> 100 µM (inactive),92.5 µM (inactive),51.2 µM (inactive)
COc1ccc2c(c1)[n+]([O-])c(-c1ccccc1)c(N)[n+]2[O-],44.1 µM (inactive),30.5 µM (inactive),43.4 µM (inactive),37.2 µM (inactive),45.2 µM (inactive),35.3,39.3 µM (inactive),45.6 µM (inactive),–,32.4 µM (inactive),> 100 µM (inactive),42.5 µM (inactive),46 µM (inactive),25.4 µM (inactive),35.6 µM (inactive),37.2 µM (inactive),47.3 µM (inactive)
COC1OC(CBr)C(OC(=O)c2ccccc2)C(O)C1Br (stereo not given),> 100 µM (inactive),> 100 µM (inactive),> 10 µM (inactive),> 100 µM (inactive),> 100 µM (inactive),> 100,> 100 µM (inactive),> 100 µM (inactive),> 100 µM (inactive),> 100 µM (inactive),–,> 100 µM (inactive),> 100 µM (inactive),–,> 100 µM (inactive),> 100 µM (inactive),> 100 µM (inactive)
O=C(CSc1nnc(-c2ccc(/N=C\c3ccc(Cl)cc3)cc2)o1)Nc1ccccc1Cl,> 100 µM (inactive),> 100 µM (inactive),–,> 100 µM (inactive),> 100 µM (inactive),> 100,> 100 µM (inactive),–,> 100 µM (inactive),–,> 100 µM (inactive),> 100 µM (inactive),> 100 µM (inactive),> 100 µM (inactive),> 100 µM (inactive),–,> 100 µM (inactive)
Fc1ccccc1C1CC(C(c2ccccc2)c2ccccc2)=Nc2ccccc2S1 (stereo not given),5.78 µM (inactive),11.4 µM (inactive),6.95 µM (inactive),7.71 µM (inactive),2.73 µM (inactive),5.78,6.04 µM (inactive),5.41 µM (inactive),–,21.9 µM (inactive),26.9 µM (inactive),14.4 µM (inactive),6.53 µM (inactive),6.85 µM (inactive),4.89 µM (inactive),6.25 µM (inactive),10.9 µM (inactive)
NC(=O)NNC/C(Cl)=C(\Cl)C(=O)O,> 100 µM (inactive),> 100 µM (inactive),> 100 µM (inactive),> 100 µM (inactive),> 100 µM (inactive),> 100,> 100 µM (inactive),> 100 µM (inactive),–,> 100 µM (inactive),> 100 µM (inactive),> 100 µM (inactive),> 100 µM (inactive),> 100 µM (inactive),> 100 µM (inactive),> 100 µM (inactive),> 100 µM (inactive)
C/C(=N\NC(=O)c1ccccc1O)c1c(O)cc(C)oc1=O,76 µM (inactive),49.4 µM (inactive),34.2 µM (inactive),68.2 µM (inactive),72.6 µM (inactive),91.2,> 100 µM (inactive),49.8 µM (inactive),–,62.8 µM (inactive),17.4 µM (inactive),63.5 µM (inactive),> 100 µM (inactive),90.6 µM (inactive),43.6 µM (inactive),–,71 µM (inactive)
Cc1cccc(C)c1N1C(=O)C(=O)C(c2nc3ccccc3s2)/C(=N/NC(=O)NN)C1=O (stereo not given),–,> 100 µM (inactive),> 100 µM (inactive),> 100 µM (inactive),–,> 100,> 100 µM (inactive),> 100 µM (inactive),> 100 µM (inactive),> 100 µM (inactive),> 100 µM (inactive),> 100 µM (inactive),> 100 µM (inactive),> 100 µM (inactive),> 100 µM (inactive),> 100 µM (inactive),> 100 µM (inactive)
Cc1cc(=O)n2c3c(c4c(cc13)c(CO)cc(=O)n4C)OC2,6.85 µM (inactive),8.18 µM (inactive),34.8 µM (inactive),6.67 µM (inactive),5.56 µM (inactive),–,5.71 µM (inactive),15.7 µM (inactive),–,7.73 µM (inactive),20 µM (inactive),10.5 µM (inactive),29.9 µM (inactive),14.1 µM (inactive),18 µM (inactive),30.7 µM (inactive),17.5 µM (inactive)
O=NN1CCN=C1c1ccc([N+](=O)[O-])cc1,> 100 µM (inactive),> 100 µM (inactive),> 100 µM (inactive),> 100 µM (inactive),> 100 µM (inactive),> 100,> 100 µM (inactive),> 100 µM (inactive),> 100 µM (inactive),> 100 µM (inactive),> 100 µM (inactive),> 100 µM (inactive),> 100 µM (inactive),–,> 100 µM (inactive),> 100 µM (inactive),> 100 µM (inactive)
CCOC(=O)C1(c2ccccc2)CCC(=O)CC1,> 100 µM (inactive),> 100 µM (inactive),> 100 µM (inactive),> 100 µM (inactive),> 100 µM (inactive),> 100,> 100 µM (inactive),> 100 µM (inactive),–,–,> 100 µM (inactive),> 100 µM (inactive),> 100 µM (inactive),> 100 µM (inactive),> 100 µM (inactive),> 100 µM (inactive),> 100 µM (inactive)
COc1cc2c(cc1OC)/C(=C\c1ccccc1N)C(=O)OC2,2.11 µM (inactive),20.9 µM (inactive),18.6 µM (inactive),> 10 µM (inactive),3.02 µM (inactive),7.19,4 µM (inactive),15 µM (inactive),–,15.7 µM (inactive),27.7 µM (inactive),16.7 µM (inactive),19.1 µM (inactive),16.3 µM (inactive),14.7 µM (inactive),12 µM (inactive),14.9 µM (inactive)
O=C(NNC(=O)c1cc(/C=C/c2cccc([N+](=O)[O-])c2)nc(S)n1)Nc1ccc(Cl)cc1,20 µM (inactive),> 100 µM (inactive),> 100 µM (inactive),68.4 µM (inactive),39.2 µM (inactive),35.6,–,20.2 µM (inactive),1.25 µM (inactive),–,> 100 µM (inactive),–,45.9 µM (inactive),30.8 µM (inactive),46.6 µM (inactive),–,–
COC(=O)C1=CC2OC13CC1CCC3(C2=O)C1(C)C (stereo not given),–,10 µM (inactive),16.7 µM (inactive),8.04 µM (inactive),11.2 µM (inactive),5.36,4.05 µM (inactive),–,–,14.2 µM (inactive),21 µM (inactive),21.6 µM (inactive),13.3 µM (inactive),7.29 µM (inactive),34.1 µM (inactive),2.2 µM (inactive),10.9 µM (inactive)
O=[N+]([O-])C1C2C=CC(C2)[C@H]1c1ccccc1Cl (stereo not given in full),> 100 µM (inactive),> 100 µM (inactive),> 31.6 µM (inactive),> 100 µM (inactive),59.4 µM (inactive),> 96.6,> 100 µM (inactive),83.6 µM (inactive),47.9 µM (inactive),> 100 µM (inactive),> 31.6 µM (inactive),> 100 µM (inactive),> 100 µM (inactive),–,> 100 µM (inactive),> 10 µM (inactive),> 10 µM (inactive)
